Molecules are shown by their SMILES. Calls of active or inactive are those of the source. No cut-off for these calls is given here.

Two compounds from ChEMBL document CHEMBL2375355, “Practical synthesis of a chromene analog for use as a retinoic acid receptor alpha antagonist lead compound” (Eur J Med Chem, 2013) can be followed below.

Holding throughout (format): cell-based
Assay [1] concerns the target T1, Retinoic acid receptor alpha (Homo sapiens) (UniProt P10276).
T1 sequence (whole entry): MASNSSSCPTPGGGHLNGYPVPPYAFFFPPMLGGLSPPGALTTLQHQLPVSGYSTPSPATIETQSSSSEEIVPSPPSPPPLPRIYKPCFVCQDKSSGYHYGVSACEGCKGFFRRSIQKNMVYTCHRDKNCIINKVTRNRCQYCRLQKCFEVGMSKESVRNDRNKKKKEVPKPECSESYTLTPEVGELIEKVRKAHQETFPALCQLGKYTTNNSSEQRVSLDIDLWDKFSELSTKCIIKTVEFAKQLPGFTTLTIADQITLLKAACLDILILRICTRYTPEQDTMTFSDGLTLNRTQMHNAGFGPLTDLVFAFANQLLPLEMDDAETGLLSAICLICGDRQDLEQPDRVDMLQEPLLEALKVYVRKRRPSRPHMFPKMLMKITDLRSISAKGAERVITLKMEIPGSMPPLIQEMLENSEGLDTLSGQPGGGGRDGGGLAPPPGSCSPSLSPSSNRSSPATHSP
Description: Antagonist activity at RARalpha in human MCF7 cells assessed as inhibition of ATRA-induced luciferase activity at 10 nM after 48 hrs by luciferase reporter gene assay.

The target of assay [2] is T1, Retinoic acid receptor alpha (Homo sapiens). Description: Antagonist activity at RARalpha in human MCF7 cells assessed as inhibition of ATRA-induced luciferase activity after 48 hrs by luciferase reporter gene assay.
Assay [3] shares this target. Kind of assay: Antagonist activity at RARalpha in human MCF7 cells assessed as inhibition of ATRA-induced luciferase activity at 0.1 to 1 nM after 48 hrs by luciferase reporter gene assay.

For `Cc1ccc(C2=CC(C)(C)Oc3c(Br)cc(C(=O)Nc4ccc(C(=O)O)cc4)cc32)cc1`, the inhibition entry in assay [1] is “Active”. In assay [2], the inhibition entry is “Dose-dependent effect”.

Regarding `Cc1ccc(C2=CC(C)(C)Oc3c(Br)cc(C(=O)Nc4ccc(C(=O)O)c(F)c4)cc32)cc1`, in assay [3], the inhibition result was “Active”.
